Reference: publication PMC9320964, “Improving the Therapeutic Index of Smp24, a Venom-Derived Antimicrobial Peptide: Increased Activity against Gram-Negative Bacteria” (International Journal of Molecular Sciences, 2022)
Converted amounts (≈) assume the structure as drawn. Marks after values point to notes of the source that are not given here. Residues, ends and D or L forms follow the SMILES beside them. No end group written: not given here.

Experiments:
Type in all cases: cell-based
[1] = system: Pseudomonas aeruginosa H085180216; experiment: MBC by spot-plating from MIC plate; settings: 5 µL aliquots of MIC plate spot-plated onto MH agar in triplicate, 18–24 h at 37 °C
Experimental: (§1) The bacterial isolates used in this study (Escherichia coli JM109, Staphylococcus aureus SH1000 and Pseudomonas aeruginosa H085180216) were obtained from the culture collection held at Sheffield Hallam University.
(§2) All antimicrobial assays were performed by a broth microdilution method in Muller Hinton (MH) broth using a CLARIOstar plate reader (BMG Labtech, Offenburg, Germany) to determine the minimum inhibitory concentration (MIC). The MIC was defined as the lowest concentration of antimicrobial peptide at which growth was inhibited when viewed as turbidity (A600 nm) against a negative broth control. To determine the minimum bactericidal concentration (MBC), 5 µL aliquots were taken from the wells of the MIC plate and spot-plated onto MH agar in triplicate. The plates were incubated for 18–24 h at 37 °C.

[2] = system: Staphylococcus aureus SH1000; experiment: MBC by spot-plating from MIC plate; settings: 5 µL aliquots of MIC plate spot-plated onto MH agar in triplicate, 18–24 h at 37 °C
Experimental: as §1, §2

[3] = system: Escherichia coli JM109; experiment: MBC by spot-plating from MIC plate; settings: 5 µL aliquots of MIC plate spot-plated onto MH agar in triplicate, 18–24 h at 37 °C
Experimental: as §1, §2

[4] = system: Pseudomonas aeruginosa H085180216; experiment: MIC by broth microdilution; settings: Muller Hinton broth, turbidity A600 nm
Experimental: as §1, §2

[5] = system: Staphylococcus aureus SH1000; experiment: MIC by broth microdilution; settings: Muller Hinton broth, turbidity A600 nm
Experimental: as §1, §2

[6] = system: Escherichia coli JM109; experiment: MIC by broth microdilution; settings: Muller Hinton broth, turbidity A600 nm
Experimental: as §1, §2

[7] = system: sheep erythrocytes; experiment: Haemolysis assay; settings: peptides 0–512 µg/mL, triplicate, 10% Triton X-100 positive control
Experimental: Haemolytic activity was determined on sheep erythrocytes as described by Corzo, 2001 [23]. All samples were tested in triplicate and results given as HC50 values. Peptides were examined in the range of 0–512 µg/mL. 10% Triton X-100 was used as a positive control and deionised water with PBS as a negative control.

[8] = system: HEK293 cells; experiment: LDH cytotoxicity assay; settings: LDH release, human kidney HEK293 cells, 0–512 µg/mL, 24 h, 37 °C, triplicate on 2 separate occasions
Experimental: (§3) An LDH assay (Fisher, Loughborough, UK) was used to determine the cytotoxic potential of the peptides against liver (HepG2) and kidney (HEK293) cells. Cells were grown in accordance with the manufacturer’s protocols. Cells were grown in DMEM containing 1 g/L D-glucose, 10% foetal bovine serum and 1% penicillin-streptomycin. Cells were grown to 80% confluence (37 °C, 5% CO2), washed twice with PBS, trypsinised, re-suspended and seeded at a density of […] in a 96-well plate. Cells were incubated for 24 h, and peptides or lipopeptide antibiotics (0–512 µg/mL) were added and incubated at 37 °C, 5% CO2 for 24 h. LDH release was determined via the manufacturer’s methods. All assays were performed in triplicate on 2 separate occasions. Triton X-100 (10%) was used as a positive control and deionised water as a negative control. Absorbance was read at 490 nm and 680 nm on a plate reader (CLARIOstar). LD50 values were calculated by plotting a dose–response curve and determining the dosage that would cause 50% cell death.

[9] = system: HepG2 cells; experiment: LDH cytotoxicity assay; settings: LDH release, human liver HepG2 cells, 0–512 µg/mL, 24 h, 37 °C, triplicate on 2 separate occasions
Experimental: as §3

Compound	MBC P. aeruginosa [1]	MBC S. aureus [2]	MBC E. coli [3]	MIC P. aeruginosa [4]	MIC S. aureus [5]	MIC E. coli [6]	HC50 [7]	HC50 ([7]; listed as daptomycin)	LD50 HEK293 [8]	LD50 HepG2 [9]	HC50 ([7]; listed as W2A)	HC50 ([7]; listed as K7F)	HC50 ([7]; listed as polymyxin B)	HC50 ([7]; listed as F4A)
CCCCCCCCCC(=O)N[C@@H](Cc1c[nH]c2ccccc12)C(=O)N[C@H](CC(N)=O)C(=O)N[C@@H](CC(=O)O)C(=O)N[C@@H]1C(=O)NCC(=O)N[C@@H](CCCN)C(=O)N[C@@H](CC(=O)O)C(=O)N[C@H](C)C(=O)N[C@@H](CC(=O)O)C(=O)NCC(=O)N[C@H](CO)C(=O)N[C@@H]([C@H](C)CC(=O)O)C(=O)N[C@@H](CC(=O)c2ccccc2N)C(=O)O[C@@H]1C [Daptomycin]	>512 µg/mL	8 µg/mL (≈ 4.94 µM)	>512 µg/mL	>512 µg/mL	4 µg/mL (≈ 2.47 µM)	>512 µg/mL	>512 µg/mL	≥ 512 µg/mL	>512 µg/mL	>512 µg/mL				
IWSFLIKAATKLLPSLFGGGKKFS [Smp24 D23F]	64 µg/mL	32 µg/mL	32 µg/mL	64 µg/mL	32 µg/mL	32 µg/mL	33 * μg/mL		38 µg/mL	>512 * μg/mL				
IASFLIKAATKLLPSLFGGGKKDS [Smp24 W2A]											> 512 µg/mL			
IWSFLIFAATKLLPSLFGGGKKDS [Smp24 K7F]												442 µg/mL		
CC[C@H](C)CCCCC(=O)N[C@@H](CCN)C(=O)N[C@H](C(=O)N[C@@H](CCN)C(=O)N[C@H]1CCNC(=O)[C@H]([C@@H](C)O)NC(=O)[C@H](CCN)NC(=O)[C@H](CCN)NC(=O)[C@H](CC(C)C)NC(=O)[C@@H](Cc2ccccc2)NC(=O)[C@H](CCN)NC1=O)[C@@H](C)O [Polymyxin B] (HELM PEPTIDE1{[CC[C@H](C)CCCCC(=O)[*:2]].[Dab].T.[Dab].[Dab].[Dab].[dF].L.[Dab].[Dab].T}$PEPTIDE1,PEPTIDE1,5:R3-11:R2$$$V2.0; N-terminus assumed; bridges inferred)	8 µg/mL (≈ 6.65 µM)	64 µg/mL (≈ 53.2 µM)	4 µg/mL (≈ 3.32 µM)	2 µg/mL (≈ 1.66 µM)	32 µg/mL (≈ 26.6 µM)	2 µg/mL (≈ 1.66 µM)	>512 µg/mL		351 µg/mL	>512 µg/mL			≥ 512 µg/mL	
IWSALIKAATKLLPSLFGGGKKDS [Smp24 F4A]														423 µg/mL
